Results reported in patent US20090062273A1, “3-H-pyrazolopyridines and salts thereof, pharmaceutical compositions comprising same, methods of preparing same and uses of same” (priority 2006, published 2009).

Tests used:
Tie2 [1] = target: T1, Tie2 (Homo sapiens, UniProt Q02763); assay: Tie2 ELISA assay (cellular Tie2 autophosphorylation); type: cell-based; design: expressed in transfected cells; host or cells: CHO (CHO Tie2/DHFR); conditions: CHO cells stably transfected with Tie2, stimulated by angiopoietin-2; Tie2 autophosphorylation by sandwich-ELISA; read-out: Tie 2 activity (assay 1)
Method: Cellular activity of compounds of the present invention as inhibitors of Tie2 kinase activity was measured employing a Tie2 ELISA assay as described in the following paragraphs. Herein CHO cell-cultures, which are stably transfected by known techniques with Tie2 using DHFR deficiency as selection marker, are stimulated by angiopoietin-2. The specific autophosphorylation of Tie2 receptors is quantified with a sandwich-ELISA using anti-Tie2 antibodies for catch and anti-phosphotyrosine antibodies coupled to HRP for detection.
• 96 well tissue culture plate, sterile, Greiner • 96 well FluoroNunc plate MaxiSorp Surface C, Nunc • 96 well plate polypropylene for compound dilution in DMSO • CHO Tie2/DHFR (transfected cells) • PBS−; PBS++, DMSO • MEM alpha Medium with Glutamax-I without Ribonucleosides and Deoxyribonucleosides (Gibco #32561-029) • with 10% FCS after dialysis! and 1% PenStrep • Lysis buffer: 1 Tablet “Complete” protease inhibitor • 1 cap Vanadate (1 mL>40 mg/mL; working solution 2 mM) • ad 50 mL with Duschl-Puffer • pH 7.6 • Anti-Tie2-antibody 1:425 in Coating Buffer pH 9.6 • Stock solution: 1.275 mg/mL>working.: 3 μg/mL • PBST: 2 bottles PBS (10×)+10 ml Tween, fill up with VE-water • RotiBlock 1:10 in VE-water • Anti-Phosphotyrosine HRP-Conjugated 1:10000 in 3% TopBlock • 3% TopBlock in PBST • BM Chemiluminescence ELISA Substrate (POD) • solution B 1:100 solution A • SF9 cell culture medium • Ang2-Fc in SF9 cell culture medium
• Dispense 5×10^4 cells/well/98 μL in 96 well tissue culture plate • Incubate at 37° C./5% CO2 • After 24 h add compounds according to desired concentrations • Add also to control and stimulated values without compounds 2 μL DMSO • And mix for a few min at room temperature • Add 100 μL Ang2-Fc to all wells except control, which receives insect medium • Incubate 20 min at 37° C. • Wash 3× with PBS++ • Add 100 μl Lysis buffer/well and shake a couple of min at room temperature • Store lysates at […] before utilizing for the ELISA
• Coat 96 well FluoroNunc Plate MaxiSorp Surface C with anti-Tie2 mAb 1:425 in Coating buffer pH 9.6; 100 μL/well overnight at 4° C. • Wash 2× with PBST • Block plates with 250 μL/well RotiBlock 1:10 in VE-water • Incubate for 2 h at room temperature or overnight at 4° C. shaking • Wash 2× in PBST • Add thawed lysates to wells and incubate overnight shaking at 4° C. • Wash 2× with PBST • Add 100 μL/well anti-Phosphotyrosine HRP-Conjugated 1:10000 in 3% TopBlock (3% TopBlock in PBST) and incubate overnight under shaking • Wash 6× with PBST • Add 100 μL/well BM Chemiluminescence ELISA Substrate (POD) solutions 1 und 2 (1:100) • Determine luminescence with the LumiCount. Assay 2: Tie-2-Kinase HTRF-Assay without Kinase Preactivation
Target sequence in this assay (Q02763 23-1124, species assumed): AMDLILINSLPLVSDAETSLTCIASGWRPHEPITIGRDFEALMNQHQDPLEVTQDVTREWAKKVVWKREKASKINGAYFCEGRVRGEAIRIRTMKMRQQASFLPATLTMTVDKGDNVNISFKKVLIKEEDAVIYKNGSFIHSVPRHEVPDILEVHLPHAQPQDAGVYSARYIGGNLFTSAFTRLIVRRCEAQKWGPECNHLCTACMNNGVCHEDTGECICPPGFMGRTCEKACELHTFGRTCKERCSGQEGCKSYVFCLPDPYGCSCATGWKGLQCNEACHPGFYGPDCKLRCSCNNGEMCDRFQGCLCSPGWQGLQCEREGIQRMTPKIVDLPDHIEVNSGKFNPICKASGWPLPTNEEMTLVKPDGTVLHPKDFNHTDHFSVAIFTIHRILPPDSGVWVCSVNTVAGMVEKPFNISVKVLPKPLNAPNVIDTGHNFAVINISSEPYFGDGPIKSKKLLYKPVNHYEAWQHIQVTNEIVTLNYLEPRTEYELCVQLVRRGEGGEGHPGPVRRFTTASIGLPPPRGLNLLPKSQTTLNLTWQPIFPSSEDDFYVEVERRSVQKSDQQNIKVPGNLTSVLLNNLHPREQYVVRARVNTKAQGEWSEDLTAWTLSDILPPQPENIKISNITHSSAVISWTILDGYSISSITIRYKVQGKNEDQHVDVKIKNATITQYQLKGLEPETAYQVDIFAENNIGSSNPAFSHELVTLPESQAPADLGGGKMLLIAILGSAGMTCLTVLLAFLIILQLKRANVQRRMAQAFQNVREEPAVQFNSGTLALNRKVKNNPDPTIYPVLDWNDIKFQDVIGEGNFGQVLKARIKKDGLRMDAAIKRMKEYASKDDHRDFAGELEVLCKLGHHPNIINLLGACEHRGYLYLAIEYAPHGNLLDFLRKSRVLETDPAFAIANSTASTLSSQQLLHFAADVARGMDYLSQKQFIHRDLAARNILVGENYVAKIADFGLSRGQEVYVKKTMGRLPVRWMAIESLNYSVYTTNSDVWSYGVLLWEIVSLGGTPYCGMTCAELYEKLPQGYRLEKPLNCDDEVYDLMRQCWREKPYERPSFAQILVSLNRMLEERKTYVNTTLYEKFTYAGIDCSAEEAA

Tie2 [2] = target: T1, Tie2; assay: Tie-2-Kinase HTRF-Assay without kinase preactivation; type: biochemical; design: fusion protein of GST and the intracellular domains of Tie-2; GST; made in house; host or cells: insect cells (Hi-5); conditions: GST-Tie-2 intracellular domains, 10 μM ATP
Source text: Tie2-inhibitory activity of compounds of the present invention was quantified employing two Tie2 HTRF assay as described in the following paragraphs.
A recombinant fusion protein of GST and the intracellular domains of Tie-2, expressed in insect cells (Hi-5) and purified by Glutathion-Sepharose affinity chromatography was used as kinase. Alternatively, commercially available GST-Tie2-fusion protein (Upstate Biotechnology, Dundee, Scotland) can be used As substrate for the kinase reaction the biotinylated peptide biotin-Ahx-EPKDDAYPLYSDFG (C-terminus in amid form) was used which can be purchased e.g. from the company Biosynthan GmbH (Berlin-Buch, Germany). Detection of phosphorylated product is achieved specifically by a trimeric detection complex consisting of the phosphorylated substrate, streptavidin-XLent (SA-XLent) which binds to biotin, and Europium Cryptate-labeled anti-phosphotyrosine antibody PT66 which binds to phosphorylated tyrosine.
Tie-2 (3.5 ng/measurement point) was incubated for 60 min at 22° C. in the presence of 10 μM adenosine-tri-phosphate (ATP) and 1 μM substrate peptide (biotin-Ahx-EPKDDAYPLYSDFG-NH2) with different concentrations of test compounds (0 μM and concentrations in the range 0.001-20 μM) in 5 μl assay buffer [50 mM Hepes/NaOH pH 7, 10 mM MgCl2, 0.5 mM MnCl2, 1.0 mM dithiothreitol, 0.01% NP40, protease inhibitor mixture (“Complete w/o EDTA” from Roche, 1 tablet per 2.5 ml), 1% (v/v) dimethylsulfoxide]. The reaction was stopped by the addition of 5 μl of an aqueous buffer (25 mM Hepes/NaOH pH 7.5, 0.28% (w/v) bovine serum albumin) containing EDTA (90 mM) and the HTRF (Homogeneous Time Resolved Fluorescence) detection reagents streptavidine-XLent (0.2 μM, from Cis Biointernational, Marcoule, France) and PT66-Eu-Chelate (0.3 ng/μl; a europium-chelate labelled anti-phospho-tyrosine antibody from Perkin Elmer).
The resulting mixture was incubated 1 h at 22° C. to allow the binding of the biotinylated phosphorylated peptide to the streptavidine-XLent and the PT66-Eu-Chelate. Subsequently the amount of phosphorylated substrate peptide was evaluated by measurement of the resonance energy transfer from the PT66-Eu-Chelate to the streptavidine-XLent. Therefore, the fluorescence emissions at 620 nm and 665 nm after excitation at 350 nm was measured in a HTRF reader, e.g. a Rubystar (BMG Labtechnologies, Offenburg, Germany) or a Viewlux (Perkin-Elmer). The ratio of the emissions at 665 nm and at […] was taken as the measure for the amount of phosphorylated substrate peptide. The data were normalised (enzyme reaction without inhibitor=0% inhibition, all other assay components but no enzyme=100% inhibition) and IC50 values were calculated by a 4 parameter fit using an inhouse software.
Target sequence in this assay (Q02763 770-1124 limits assumed, species assumed): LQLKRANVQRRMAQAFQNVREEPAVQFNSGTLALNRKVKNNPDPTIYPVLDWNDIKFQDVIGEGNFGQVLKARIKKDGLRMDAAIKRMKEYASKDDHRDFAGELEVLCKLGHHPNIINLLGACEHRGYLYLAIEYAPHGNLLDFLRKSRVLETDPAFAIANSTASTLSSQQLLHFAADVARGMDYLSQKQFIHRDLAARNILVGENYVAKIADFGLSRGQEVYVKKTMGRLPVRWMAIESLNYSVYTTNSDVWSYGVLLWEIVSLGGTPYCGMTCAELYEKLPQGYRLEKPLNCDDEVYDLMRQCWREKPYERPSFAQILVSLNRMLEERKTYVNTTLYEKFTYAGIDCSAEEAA

IC50 (Tie2 [1]) [nM]	IC50 (Tie2 [2]) [nM]	SMILES
< 501	< 501	CC(C)c1cc(NC(=O)Nc2ccc(-c3cncc4c3cnn4C)cc2)n(-c2cccc(F)c2)n1 [Example 15.1, 1-[2-(3-Fluoro-phenyl)-5-isopropyl-2H-pyrazol-3-yl]-3-[4-(1-methyl-1H-pyrazolo[3,4-c]pyridin-4-yl)-phenyl]-urea]
< 501	< 501	COCCn1ncc2c(-c3ccc(NC(=O)Nc4cc(C(F)(F)F)ccc4F)c(F)c3)cncc21 [Example 12.5, 1-{2-Fluoro-4-[1-(2-methoxy-ethyl)-1H-pyrazolo[3,4-c]pyridin-4-yl]-phenyl}-3-(2-fluoro-5-trifluoromethyl-phenyl)-urea]
< 501	< 501	Cn1ncc2c(-c3ccc(NC(=O)Nc4cc(C(C)(C)C)nn4-c4ccc(F)cc4)cc3)cncc21 [Example 15.7, 1-[5-tert-Butyl-2-(4-fluoro-phenyl)-2H-pyrazol-3-yl]-3-[4-(1-methyl-1H-pyrazolo[3,4-c]pyridin-4-yl)-phenyl]-urea]
< 501	< 501	CN(C)CCN(C)c1ccc(C(F)(F)F)cc1NC(=O)Nc1ccc(-c2cncc3c2cnn3C)cc1 [Example 13.13, 1-{2-[(2-Dimethylamino-ethyl)-methyl-amino]-5-trifluoromethyl-phenyl}-3-[4-(1-methyl-1H-pyrazolo[3,4-c]pyridin-4-yl)-phenyl]-urea]
< 501	< 501	Cn1ncc2c(-c3ccc(NC(=O)Nc4cc(C(C)(C)C)nn4-c4ccncc4)cc3)cncc21 [Example 15.10, 1-(5-tert-Butyl-2-pyridin-4-yl-2H-pyrazol-3-yl)-3-[4-(1-methyl-1H-pyrazolo[3,4-c]pyridin-4-yl)-phenyl]-urea]
< 501	< 501	COCCn1ncc2c(-c3ccc(NC(=O)Nc4cc(C)ccc4F)cc3)cncc21 [Example 12.3, 1-(2-Fluoro-5-methyl-phenyl)-3-{4-[1-(2-methoxy-ethyl)-1H-pyrazolo[3,4-c]pyridin-4-yl]-phenyl}-urea]
< 501	< 501	Cn1ncc2c(-c3ccc(NC(=O)Nc4cc(C(C)(C)C)nn4-c4cncc(F)c4)c(F)c3)cncc21 [Example 15.13, 1-[5-tert-Butyl-2-(5-fluoro-pyridin-3-yl)-2H-pyrazol-3-yl]-3-[2-fluoro-4-(1-methyl-1H-pyrazolo[3,4-c]pyridin-4-yl)-phenyl]-urea]
< 501	< 501	Cn1nc(C(C)(C)C)cc1NC(=O)Nc1ccc(-c2cncc3c2cnn3C)cc1 [Example 14.3, 1-(5-tert-Butyl-2-methyl-2H-pyrazol-3-yl)-3-[4-(1-methyl-1H-pyrazolo[3,4-c]pyridin-4-yl)-phenyl]-urea]
< 501	< 501	COCCn1ncc2c(-c3ccc(NC(=O)Nc4cccc(C(F)(F)F)c4)c(F)c3)cncc21 [Example 12.4, 1-{2-Fluoro-4-[1-(2-methoxy-ethyl)-1H-pyrazolo[3,4-c]pyridin-4-yl]-phenyl}-3-(3-trifluoromethyl-phenyl)-urea]
< 501	< 501	CN1CCN(Cc2ccc(NC(=O)Nc3ccc(-c4cncc5c4cnn5C)cc3F)cc2C(F)(F)F)CC1 [Example 13.6, 1-[2-Fluoro-4-(1-methyl-1H-pyrazolo[3,4-c]pyridin-4-yl)-phenyl]-3-[4-(4-methyl-piperazin-1-ylmethyl)-3-trifluoromethyl-phenyl]-urea]

The remaining lines, values behind:

SMILES	IC50 (Tie2 [1]) [nM]	IC50 (Tie2 [2]) [nM]
O=C(Nc1ccc(-c2cncc3c2cnn3CCO)cc1)Nc1cc(C(F)(F)F)ccc1F [Example 8.2, 1-(2-Fluoro-5-trifluoromethyl-phenyl)-3-{4-[1-(2-hydroxy-ethyl)-1H-pyrazolo[3,4-c]pyridin-4-yl]-phenyl}-urea]	< 501	< 501
CCn1ncc2c(-c3ccc(NC(=O)Nc4cc(C(F)(F)F)ccc4F)cc3)cncc21 [Example 10.5, 1-[4-(1-Ethyl-1H-pyrazolo[3,4-c]pyridin-4-yl)-phenyl]3-(2-fluoro-5-trifluoromethyl-phenyl)-urea]	< 501	< 501
Cc1ccc(F)c(NC(=O)Nc2ccc(-c3cncc4c3cnn4C)cc2)c1 [Example 1.3, 1-(2-Fluoro-5-methyl-phenyl)-3-[4-(1-methyl-1H-pyrazolo[3,4-c]pyridin-4-yl)-phenyl]-urea]	< 501	< 501
Cn1ncc2c(-c3ccc(NC(=O)Nc4cc(C(F)(F)F)ccc4Cl)cc3)cncc21 [Example 1.13, 1-(2-Chloro-5-trifluoromethyl-phenyl)-3-[4-(1-methyl-1H-pyrazolo[3,4-c]pyridin-4-yl)-phenyl]-urea]	< 501	< 501
Cn1ncc2c(-c3ccc(NC(=O)Nc4cccc(C(F)(F)F)c4)c(F)c3)cncc21 [Example 3.1, 1-[2-Fluoro-4-(1-methyl-1H-pyrazolo[3,4-c]pyridin-4-yl)-phenyl]-3-(3-trifluoromethyl-phenyl)-urea]	< 501	< 501
CN1CCN(Cc2ccc(NC(=O)Nc3ccc(-c4cncc5c4cnn5C)cc3)cc2C(F)(F)F)CC1 [Example 6.4, 1-[4-(4-Methyl-piperazin-1-ylmethyl)-3-trifluoromethyl-phenyl]-3-[4-(1-methyl-1H-pyrazolo[3,4-c]pyridin-4-yl)-phenyl]-urea]	< 501	< 501
O=C(Nc1ccc(-c2cncc3c2cnn3CCO)cc1F)Nc1cc(C(F)(F)F)ccc1F [Example 8.1, 1-{2-Fluoro-4-[1-(2-hydroxy-ethyl)-1H-pyrazolo[3,4-c]pyridin-4-yl]-phenyl}-3-(2-fluoro-5-trifluoromethyl-phenyl)-urea]	< 501	< 501
Cn1ncc2c(-c3ccc(NC(=O)Nc4cc(C(F)(F)F)ccn4)cc3)cncc21 [Example 1.9, 1-[4-(1-Methyl-1H-pyrazolo[3,4-c]pyridin-4-yl)-phenyl]-3-(4-trifluoromethyl-pyridin-2-yl)-urea]	< 501	< 501
